We go through four compounds from paper PMC8915830 (Proceedings of the National Academy of Sciences of the …, 2022).

Assay [1] addresses T1, hGHSR1aWT (Homo sapiens, UniProt Q92847). In words: iCa2+ in WT or Gαq/11 KO HEK293/S cells. Type of assay: cell-based. To be noted: 10 μM ligand; versus WT cells.
In assay [2] the target is T1, hGHSR1aWT. In words: Gαq/11-dependent intracellular Ca2+ mobilization. Type of assay: cell-based. To be noted: for activity of the pure/resynthesized molecule: screening aliquots contained oxidated impurities. (In general: A change in cytosolic calcium serves as a functional read-out for many receptors and channels.)

T1 sequence (Q92847 whole entry): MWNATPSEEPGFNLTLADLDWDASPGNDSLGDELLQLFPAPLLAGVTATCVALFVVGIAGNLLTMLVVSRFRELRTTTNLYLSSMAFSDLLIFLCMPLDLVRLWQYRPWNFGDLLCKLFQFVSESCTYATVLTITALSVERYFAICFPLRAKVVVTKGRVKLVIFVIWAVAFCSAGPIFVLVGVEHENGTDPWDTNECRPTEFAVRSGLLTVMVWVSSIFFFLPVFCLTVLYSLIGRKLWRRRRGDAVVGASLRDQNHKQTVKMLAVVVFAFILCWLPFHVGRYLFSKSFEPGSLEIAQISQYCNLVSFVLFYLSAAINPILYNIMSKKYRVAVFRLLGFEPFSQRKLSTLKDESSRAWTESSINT

`C[C@@H](O)CNC(C)(C)CC(=O)N[C@@H]1CCc2ccccc2N(Cc2ccc(-c3ccccc3-c3nn[nH]n3)cc2)C1=O` [L585]: the “ligand-induced iCa2+ in Gαq/11 KO cells” value in assay [1] was “abolished”.
In the case of `CCOc1ccc(C2c3c(oc4ccc(C)cc4c3=O)C(=O)N2CCCN(C)C)cc1OC` (stereo not shown) [N1956], the “activity of the pure/resynthesized molecule” value in assay [2] was “could not be confirmed”.
Consider `COc1ccc(C2c3c(oc4ccc(Cl)cc4c3=O)C(=O)N2CCCN(C)C)cc1OC` (stereo not shown) [N6164], for which the “activity of the pure/resynthesized molecule” value in assay [2] was “could not be confirmed”.
As for `Cc1nc2ccc(Oc3ccc(F)cc3)cc2c(=O)n1C[C@H]1CCCN(C(C)C)C1` [YIL781], the “inhibition of iCa2+ evoked by EC80 N8279, ghrelin or L585” value in assay [2] (30 min antagonist pretreatment) is “competitively inhibited”.
